Measurements as given in patent US20110230493A1, “1-OXA-8-Azaspiro [4,5] Decabe-8-Carboxamide Compounds as FAAH Inhibitors” (Pfizer Inc., priority 2008, published 2011).

Assays:
human FAAH = target: T1, human FAAH (Homo sapiens, UniProt O00519); test: FAAH assay, human FAAH enzyme inactivation (kinact/Ki); type: biochemical; details: pH 7.4, in vitro, oleamide 50 μM, 30° C., read-out: hFAAH kinact/Ki
T1 construct: made in house; host or cells: E. coli
T1 sequence (O00519 1-579): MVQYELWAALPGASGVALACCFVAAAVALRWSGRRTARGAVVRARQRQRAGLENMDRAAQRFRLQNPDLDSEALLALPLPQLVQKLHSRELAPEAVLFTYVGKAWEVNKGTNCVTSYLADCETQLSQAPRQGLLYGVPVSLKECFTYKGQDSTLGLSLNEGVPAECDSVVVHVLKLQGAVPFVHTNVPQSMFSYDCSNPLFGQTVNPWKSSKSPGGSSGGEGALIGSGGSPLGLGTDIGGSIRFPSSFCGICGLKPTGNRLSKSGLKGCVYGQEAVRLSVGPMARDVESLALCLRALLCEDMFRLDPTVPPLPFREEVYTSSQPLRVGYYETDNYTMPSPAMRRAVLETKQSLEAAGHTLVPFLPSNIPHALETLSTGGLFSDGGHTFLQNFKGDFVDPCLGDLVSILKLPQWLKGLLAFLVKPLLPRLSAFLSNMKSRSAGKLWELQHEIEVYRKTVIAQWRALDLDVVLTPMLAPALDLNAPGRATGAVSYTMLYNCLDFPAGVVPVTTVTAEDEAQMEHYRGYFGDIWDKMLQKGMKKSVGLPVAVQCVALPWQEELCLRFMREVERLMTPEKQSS
Description: (§1) The FAAH assay was carried out in 384-well clear polystyrene plates (Evergreen Scientific) in a total volume of 50 μl per well in a manner similar to that described by Mileni et al., Proc. Nat. Acad. Sci. 2008, 105, 12820-12824. All percents are by volume. Serial dilutions of compound were initially prepared in 100% DMSO, and then diluted two-fold into HPLC-grade H2O to give 50% DMSO. To each well, was placed the reaction mixture (40 μl) containing 1-4 nM FAAH, 50 mM NaPi, pH 7.4, 3 mM α-ketoglutarate, 0.15 mM NADH, 7.5 U/ml glutamate dehydrogenase, 2 mM ADP, 1 mM EDTA, and 0.1% Triton X-100 (The concentration shown for each component is the final concentration in the assay). To this mixture, was added 5 μl of a compound of Examples 1 to 101 at various concentrations in 50% DMSO (or 5 μl 50% DMSO for controls). This was immediately followed by the addition of 5 μl oleamide (500 μM) dissolved in 75% EtOH/25% DMSO and the reaction mixture was mixed for 1.5 min. The final concentrations of DMSO and EtOH in the assay were each 7.5%. The reactions were incubated at 30° C. and the absorbance at 340 nm was collected over a period of 90 min with readings taken in 30-second intervals using SpectraMax Plus^384 Microplate Spectrophotometer (Molecular Devices, Sunnyvale, Calif.). The human FAAH and rat FAAH used in the assay was prepared as described in the patent application WO 2006/067613 using wild-type E. coli cells transformed in St. Louis, Mo., U.S.A. The purity of the enzyme was greater than 98% based on an analysis by SDS-polyacrylamide gel electrophoresis followed by Coomassie Blue staining.
(§2) Reaction progress curves were corrected for the non-enzymatic oxidation of NADH by subtraction of absorbancies at each time point obtained from control reactions containing no FAAH enzyme. The loss of enzyme activity as a function of time is well-described by the following mathematical equation (1) for a mono-exponential decay: […]
(§3) where At represents the absorbance at time t, A0 represents the absorbance at time zero, and C represents a constant. Observed rates of enzyme inactivation (kobs) were determined from the non-linear reaction progress curves by fitting the corrected absorbancies to an equation for a mono-exponential decay using the third-party Microsoft Excel plug-in, XLfit (IDBS Limited). Secondary plots of kobs vs. inhibitor concentration were prepared from kobs values obtained from progress curves. Second-order rates for enzyme inactivation, expressed as kinact/Ki (M^−1 s^−1), were calculated from the slopes from linear regression analysis of the secondary plot of kobs vs. inhibitor concentration as defined in following equation (2), where [I]<<Ki:
(§4) The concentration of substrate in the assay was equal to the Km for oleamide of 50 μM. Therefore, reported kinact/Ki values are obtained by multiplying resulting slopes by a factor of two (i.e. slope=kinact/(Ki*2)).
(§5) Table 1, below, lists human FAAH (hFAAH) and rat FAAH (rFAAH) enzyme inhibition values for Examples 1-101 as a ratio of kinact/Ki (M^−1 s^−1).

rat FAAH = target: T2, rat FAAH (Rattus norvegicus, UniProt P97612); test: FAAH assay, rat FAAH enzyme inactivation (kinact/Ki); type: biochemical; details: pH 7.4, in vitro, oleamide 50 μM, 30° C., read-out: rFAAH kinact/Ki
T2 construct: made in house; host or cells: E. coli
T2 sequence (P97612 1-579): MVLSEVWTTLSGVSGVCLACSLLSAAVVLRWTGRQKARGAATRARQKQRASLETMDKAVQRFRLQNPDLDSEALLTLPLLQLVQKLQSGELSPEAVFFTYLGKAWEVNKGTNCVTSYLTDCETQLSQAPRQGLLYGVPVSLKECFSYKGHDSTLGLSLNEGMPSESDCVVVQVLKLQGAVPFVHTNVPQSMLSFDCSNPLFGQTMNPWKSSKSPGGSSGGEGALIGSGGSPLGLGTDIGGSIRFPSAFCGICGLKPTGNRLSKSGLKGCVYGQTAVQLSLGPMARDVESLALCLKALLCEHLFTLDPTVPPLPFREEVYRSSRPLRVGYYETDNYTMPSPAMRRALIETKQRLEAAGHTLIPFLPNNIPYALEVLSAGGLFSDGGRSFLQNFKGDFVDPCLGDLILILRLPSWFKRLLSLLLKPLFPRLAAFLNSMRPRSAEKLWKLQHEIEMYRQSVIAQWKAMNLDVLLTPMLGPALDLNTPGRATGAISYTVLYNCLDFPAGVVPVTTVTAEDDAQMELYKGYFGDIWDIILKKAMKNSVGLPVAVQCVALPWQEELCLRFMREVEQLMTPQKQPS
Description: as §1, §2, §3, §4, §5

| SMILES | kinact/KI (human FAAH) [M⁻¹ s⁻¹] | kinact/KI (rat FAAH) [M⁻¹ s⁻¹] |
| --- | --- | --- |
| O=C(Nc1cccnn1)N1CCC2(CC1)CC(c1cccc(Oc3ccc(Br)cn3)c1)CO2 (racemic) [Example 5, (3RS)-3-{3-[(5-bromopyridin-2-yl)oxy]phenyl}-N-pyridazin-3-yl-1-oxa-8-azaspiro[4.5]decane-8-carboxamide] | 2660 | 3620 |
| Cc1noc(NC(=O)N2CCC3(CC2)CC(c2cccc(OC(F)(F)F)c2)CO3)c1C (racemic) [Example 13, (3RS)-N-(3,4-dimethylisoxazol-5-yl)-3-[3-(trifluoromethoxy)phenyl]-1-oxa-8-azaspiro[4.5]decane-8-carboxamide] | 1800 | 3110 |
| Cc1noc(NC(=O)N2CCC3(CC2)CC(c2cccc(Cl)c2)CO3)c1C (racemic) [Example 14, (3RS)-3-(3-chlorophenyl)-N-(3,4-dimethylisoxazol-5-yl)-1-oxa-8-azaspiro[4.5]decane-8-carboxamide] | 2040 | 2670 |
| Cc1noc(NC(=O)N2CCC3(CC2)CC(c2ccc(Cl)c(Cl)c2)CO3)c1C (racemic) [Example 15, (3RS)-3-(3,4-dichlorophenyl)-N-(3,4-dimethylisoxazol-5-yl)-1-oxa-8-azaspiro[4.5]decane-8-carboxamide] | 2430 | 4360 |
| Cc1noc(NC(=O)N2CCC3(CC2)CC(c2ccc(OCc4ccccc4Cl)c(Cl)c2)CO3)c1C (racemic) [Example 18, (3RS)-3-{3-chloro-4-[(2-chlorobenzyl)oxy]phenyl}-N-(3,4-dimethylisoxazol-5-yl)-1-oxa-8-azaspiro[4.5]decane-8-carboxamide] | 2290 | 2840 |
| Cc1noc(NC(=O)N2CCC3(CC2)CC(c2ccc(OCc4ccccc4)c(Cl)c2)CO3)c1C (racemic) [Example 20, (3RS)-3-[4-(benzyloxy)-3-chlorophenyl]-N-(3,4-dimethylisoxazol-5-yl)-1-oxa-8-azaspiro[4.5]decane-8-carboxamide] | 3970 | 4390 |
| Cc1noc(NC(=O)N2CCC3(CC2)CC(c2ccc(OCc4cccc(Cl)c4)c(Cl)c2)CO3)c1C (racemic) [Example 21, (3RS)-3-{3-chloro-4-[(3-chlorobenzyl)oxy]phenyl}-N-(3,4-dimethylisoxazol-5-yl)-1-oxa-8-azaspiro[4.5]decane-8-carboxamide] | 3100 | 3550 |
| Cc1noc(NC(=O)N2CCC3(CC2)CC(c2ccc(OCc4ccc(Cl)cc4)cc2)CO3)c1C (racemic) [Example 23, (3RS)-3-{4-[(4-chlorobenzyl)oxy]phenyl}-N-(3,4-dimethylisoxazol-5-yl)-1-oxa-8-azaspiro[4.5]decane-8-carboxamide] | 6950 | 10900 |
| Cc1noc(NC(=O)N2CCC3(CC2)CC(c2ccc4ccccc4c2)CO3)c1C (racemic) [Example 25, (3RS)-N-(3,4-dimethylisoxazol-5-yl)-3-(2-naphthyl)-1-oxa-8-azaspiro[4.5]decane-8-carboxamide] | 2090 | 2240 |
| Cc1noc(NC(=O)N2CCC3(CC2)CC(c2ccc(Cl)c(F)c2)CO3)c1C (racemic) [Example 26, (3RS)-3-(4-chloro-3-fluorophenyl)-N-(3,4-dimethylisoxazol-5-yl)-1-oxa-8-azaspiro[4.5]decane-8-carboxamide] | 2140 | 2520 |

Further lines, results first:

| kinact/KI (human FAAH) [M⁻¹ s⁻¹] | kinact/KI (rat FAAH) [M⁻¹ s⁻¹] | SMILES |
| --- | --- | --- |
| 2910 | 3380 | O=C(Nc1cccnn1)N1CCC2(CC1)CC(c1cccc(Oc3ccc(Cl)cn3)c1)CO2 (racemic) [Example 4, (3RS)-3-{3-[(5-chloropyridin-2-yl)oxy]phenyl}-N-pyridazin-3-yl-1-oxa-8-azaspiro[4.5]decane-8-carboxamide] |
| 2320 | 1750 | O=C(Nc1cccnc1)N1CCC2(CC1)CC(c1cccc(Oc3ccc(Br)cn3)c1)CO2 (racemic) [Example 6, (3RS)-3-{3-[(5-bromopyridin-2-yl)oxy]phenyl}-N-pyridin-3-yl-1-oxa-8-azaspiro[4.5]decane-8-carboxamide] |
| 1990 | 3590 | Cc1noc(NC(=O)N2CCC3(CC2)CC(c2cc(F)cc(Cl)c2)CO3)c1C (racemic) [Example 16, (3RS)-3-(3-chloro-5-fluorophenyl)-N-(3,4-dimethylisoxazol-5-yl)-1-oxa-8-azaspiro[4.5]decane-8-carboxamide] |
| 6960 | 6690 | Cc1noc(NC(=O)N2CCC3(CC2)CC(c2ccc(OCc4ccc(F)cc4)cc2)CO3)c1C (racemic) [Example 17, (3RS)-N-(3,4-dimethylisoxazol-5-yl)-3-{4-[(4-fluorobenzyl)oxy]phenyl}-1-oxa-8-azaspiro[4.5]decane-8-carboxamide] |
| 6710 | 7120 | Cc1noc(NC(=O)N2CCC3(CC2)CC(c2ccc(OCc4ccc(F)cc4)c(Cl)c2)CO3)c1C (racemic) [Example 19, (3RS)-3-{3-chloro-4-[(4-fluorobenzyl)oxy]phenyl}-N-(3,4-dimethylisoxazol-5-yl)-1-oxa-8-azaspiro[4.5]decane-8-carboxamide] |
| 6030 | 3630 | Cc1noc(NC(=O)N2CCC3(CC2)CC(c2ccc(OCc4cccc(F)c4)cc2)CO3)c1C (racemic) [Example 22, (3RS)-N-(3,4-dimethylisoxazol-5-yl)-3-{4-[(3-fluorobenzyl)oxy]phenyl}-1-oxa-8-azaspiro[4.5]decane-8-carboxamide] |
| 788 | 431 | Cc1noc(NC(=O)N2CCC3(CC2)CC(c2ccc4c(c2)OCO4)CO3)c1C (racemic) [Example 24, (3RS)-3-(1,3-benzodioxol-5-yl)-N-(3,4-dimethylisoxazol-5-yl)-1-oxa-8-azaspiro[4.5]decane-8-carboxamide] |
| 2090 | 1140 | Cc1noc(NC(=O)N2CCC3(CC2)CC(c2ccc(Cl)cc2F)CO3)c1C (racemic) [Example 27, (3RS)-3-(4-chloro-2-fluorophenyl)-N-(3,4-dimethylisoxazol-5-yl)-1-oxa-8-azaspiro[4.5]decane-8-carboxamide] |
